Assay results published in patent US20250325517A1, “ORAL DOSAGE FORMS OF ELRAGLUSIB” (Actuate Therapeutics, Inc., priority 2022, published 2025).

Assay: Solubility of elraglusib in acetone, acetone:water and THF with and without polymers (24 h, visual and HPLC)
Format: physicochemical
Settings: for time to precipitation when agitated: ~4% w/w solids; for visual observation: stirred
Protocol: The solubility of elraglusib API with and without polymers of interest was evaluated in acetone. […] Samples were prepared according to Table 6-13. […] Additional studies were performed to determine if an increased water content would prevent formation of the solvate precipitate and more dilute solutions were tested for potential ASD processing.

Cn1cc(C2=C(c3coc4ccc(F)cc34)C(=O)NC2=O)c2cc3c(cc21)OCO3 [elraglusib, 3-(5-fluorobenzofuran-3-yl)-4-(5-methyl-5H-[1,3]dioxolo[4,5-f]indol-7-yl)-1H-pyrrole-2,5-dione]
time remaining soluble (1.5-2.0% w/w in 95:5 acetone:water): over 24 hours
time to precipitation when agitated (90:10 acetone:water): 3.5 h
time to precipitation when agitated (95:5 acetone:water): 2 h
visual observation (Table 6-14 Sample 1: 4.02% w/w in Acetone, 30 min): Translucent
visual observation (Table 6-14 Sample 1: 4.02% w/w in Acetone, 1 hour): Translucent
visual observation (Table 6-14 Sample 1: 4.02% w/w in Acetone, 2 hours): Precipitation
visual observation (Table 6-14 Sample 1: 4.02% w/w in Acetone, 4 hours): No change
visual observation (Table 6-14 Sample 1: 4.02% w/w in Acetone, 8 hours): No change
visual observation (Table 6-14 Sample 1: 4.02% w/w in Acetone, 24 hours): No change
visual observation (Table 6-14 Sample 2: 4.02% w/w in THF, 30 min): Translucent
visual observation (Table 6-14 Sample 2: 4.02% w/w in THF, 1 hour): Translucent
visual observation (Table 6-14 Sample 2: 4.02% w/w in THF, 2 hours): Translucent
visual observation (Table 6-14 Sample 2: 4.02% w/w in THF, 4 hours): Translucent
visual observation (Table 6-14 Sample 2: 4.02% w/w in THF, 8 hours): Translucent
visual observation (Table 6-14 Sample 2: 4.02% w/w in THF, 24 hours): Translucent
visual observation (Table 6-14 Sample 3: 4.02% w/w in 95:5 Acetone:Water, 30 min): Translucent
visual observation (Table 6-14 Sample 3: 4.02% w/w in 95:5 Acetone:Water, 1 hour): Translucent
visual observation (Table 6-14 Sample 3: 4.02% w/w in 95:5 Acetone:Water, 2 hours): Precipitation
visual observation (Table 6-14 Sample 3: 4.02% w/w in 95:5 Acetone:Water, 4 hours): No change
visual observation (Table 6-14 Sample 3: 4.02% w/w in 95:5 Acetone:Water, 8 hours): No change
visual observation (Table 6-14 Sample 3: 4.02% w/w in 95:5 Acetone:Water, 24 hours): No change
visual observation (Table 6-14 Sample 4: 3.96% w/w API in Acetone with HPMCAS-MG (7.96% w/w total solids), 30 min): Hazy
visual observation (Table 6-14 Sample 4: 3.96% w/w API in Acetone with HPMCAS-MG (7.96% w/w total solids), 1 hour): Hazy
visual observation (Table 6-14 Sample 4: 3.96% w/w API in Acetone with HPMCAS-MG (7.96% w/w total solids), 2 hours): Hazy but no
visual observation (Table 6-14 Sample 4: 3.96% w/w API in Acetone with HPMCAS-MG (7.96% w/w total solids), 4 hours): Precipitation
visual observation (Table 6-14 Sample 4: 3.96% w/w API in Acetone with HPMCAS-MG (7.96% w/w total solids), 8 hours): No change
visual observation (Table 6-14 Sample 4: 3.96% w/w API in Acetone with HPMCAS-MG (7.96% w/w total solids), 24 hours): No change
visual observation (Table 6-17 Sample 1: 3.99% w/w in 90:10 acetone:water, 30 min): Translucent
visual observation (Table 6-17 Sample 1: 3.99% w/w in 90:10 acetone:water, 1 hour): Translucent
visual observation (Table 6-17 Sample 1: 3.99% w/w in 90:10 acetone:water, 2 hours): Translucent
visual observation (Table 6-17 Sample 1: 3.99% w/w in 90:10 acetone:water, 3.5 hours): Precipitation
visual observation (Table 6-17 Sample 1: 3.99% w/w in 90:10 acetone:water, 4 hours): No change
visual observation (Table 6-17 Sample 1: 3.99% w/w in 90:10 acetone:water, 21.5 hours): No change
visual observation (Table 6-17 Sample 2: 3.99% w/w in 95:5 acetone:water, 30 min): Translucent
visual observation (Table 6-17 Sample 2: 3.99% w/w in 95:5 acetone:water, 1 hour): Translucent
visual observation (Table 6-17 Sample 2: 3.99% w/w in 95:5 acetone:water, 2 hours): Precipitation
visual observation (Table 6-17 Sample 2: 3.99% w/w in 95:5 acetone:water, 3.5 hours): No change
visual observation (Table 6-17 Sample 2: 3.99% w/w in 95:5 acetone:water, 4 hours): No change
visual observation (Table 6-17 Sample 2: 3.99% w/w in 95:5 acetone:water, 21.5 hours): No change
visual observation (Table 6-17 Sample 3: 2.04% w/w in 95:5 acetone:water, 30 min): Translucent
visual observation (Table 6-17 Sample 3: 2.04% w/w in 95:5 acetone:water, 1 hour): No change
visual observation (Table 6-17 Sample 3: 2.04% w/w in 95:5 acetone:water, 2 hours): No change
visual observation (Table 6-17 Sample 3: 2.04% w/w in 95:5 acetone:water, 3.5 hours): No change
visual observation (Table 6-17 Sample 3: 2.04% w/w in 95:5 acetone:water, 4 hours): No change
visual observation (Table 6-17 Sample 3: 2.04% w/w in 95:5 acetone:water, 21.5 hours): No change
visual observation (Table 6-17 Sample 4: 1.84% w/w in 95:5 acetone:water, 30 min): Translucent
visual observation (Table 6-17 Sample 4: 1.84% w/w in 95:5 acetone:water, 1 hour): No change
visual observation (Table 6-17 Sample 4: 1.84% w/w in 95:5 acetone:water, 2 hours): No change
visual observation (Table 6-17 Sample 4: 1.84% w/w in 95:5 acetone:water, 3.5 hours): No change
visual observation (Table 6-17 Sample 4: 1.84% w/w in 95:5 acetone:water, 4 hours): No change
visual observation (Table 6-17 Sample 4: 1.84% w/w in 95:5 acetone:water, 21.5 hours): No change
visual observation (Table 6-17 Sample 5: 1.54% w/w in 95:5 acetone:water, 30 min): Translucent
visual observation (Table 6-17 Sample 5: 1.54% w/w in 95:5 acetone:water, 1 hour): No change
visual observation (Table 6-17 Sample 5: 1.54% w/w in 95:5 acetone:water, 2 hours): No change
visual observation (Table 6-17 Sample 5: 1.54% w/w in 95:5 acetone:water, 3.5 hours): No change
visual observation (Table 6-17 Sample 5: 1.54% w/w in 95:5 acetone:water, 4 hours): No change
